Where two headings read alike, the source gives them in different places.
Key:
hCA I = hCA I (Homo sapiens, UniProt P00915); experiment: In vitro CA inhibition assay, hCA I; assay type: biochemical; details: unit from table title
hCA II = hCA II (Homo sapiens, UniProt P00918); experiment: In vitro CA inhibition assay, hCA II; assay type: biochemical
hCA IX = hCA IX (Homo sapiens, UniProt Q16790); experiment: In vitro CA inhibition assay, hCA IX; assay type: biochemical; details: cells with nM printed beside the value
human CA isoforms = details: background statement; cited from earlier work
4T1 mammary tumor cells = details: 2×10^5 4T1 cells i.v.; daily i.p. injection for 6 days from 24 hours post inoculation; imaged 24 hours after final dose
4T1 primary tumors = experiment: Growth of orthotopically implanted 4T1 primary tumors; assay type: in vivo, female BALB/c mice; details: 1×10^6 cells/mouse orthotopic; tumors established 14 days; daily i.p. for 14 days
[1] = unit from table title, read-out: hCA II inhibition data in KI

Sequence of hCA I (P00915 whole entry): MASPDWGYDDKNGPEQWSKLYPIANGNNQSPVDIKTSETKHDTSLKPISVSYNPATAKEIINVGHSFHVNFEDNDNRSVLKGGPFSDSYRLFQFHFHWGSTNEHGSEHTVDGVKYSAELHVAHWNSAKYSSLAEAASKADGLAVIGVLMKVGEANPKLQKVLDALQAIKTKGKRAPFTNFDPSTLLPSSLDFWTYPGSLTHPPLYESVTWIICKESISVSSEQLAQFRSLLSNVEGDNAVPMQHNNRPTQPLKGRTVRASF

Work on `Cc1cc(=O)oc2cc(OC3OC(CO)C(O)C(O)C3O)ccc12` (single isomer, unassigned) [MST-202, 4-methylumbellifer-7-yl- -D-glucopyranoside] yielded a Ki (hCA I) of 1 µM and a Ki (hCA II; [1]) greater than 100 µM.
For `Cc1cc(=O)oc2cc(OC3OC(CO)C(O)C(O)C3O)ccc12` (single isomer, unassigned) [MST-203, 4-methylumbellifer-7-yl-1-D-galactopyranoside], the Ki (hCA I) was 0.59 µM, the Ki (hCA IX) was 93 nM and the Ki (hCA II; [1]) was 77 µM.
In the case of `COc1cc2oc(=O)ccc2cc1[C@@H](O)CC(C)C` [6-(1S-hydroxy-3-methylbutyl)-7-methoxy-2H-chromen-2-one], the “inhibition of all investigated human CA isoforms” value (human CA isoforms) is listed as “nonselective, potent inhibitors”.
Work on `Cc1cc(=O)oc2cc(OC3OCC(O)C(O)C3O)ccc12` [MST-201, 4-methylumbellifer-7-yl- -D-xylopyranoside] yielded a melting point of 223 °C.
In the case of `Cc1cc(=O)oc2cc(O[C@H]3O[C@H](CO)[C@@H](O)[C@H](O)[C@@H]3O)ccc12` [MST-204, 4-methylumbellifer-7-yl-α-D-mannopyranoside], the “formation of metastases by 4T1 mammary tumor cells (tumor-derived bioluminescence)” value (4T1 mammary tumor cells) is reported as “reduced the formation of metastases”.
In the case of `Cc1cc(=O)oc2cc(OC3OC(C)C(O)C(O)C3O)ccc12` [MST-205, 4-methylumbellifer-7-yl- -L-rhamnopyranoside], the Ki (hCA I) is reported as greater than 100 µM, the “formation of metastases by 4T1 mammary tumor cells (tumor-derived bioluminescence)” value (4T1 mammary tumor cells) is reported as “inhibits the formation of metastases” and the Ki (hCA IX) is reported as 201 nM. For the same compound, the “growth of 4T1 primary tumors (caliper-based measurement)” value (4T1 primary tumors) was “Attenuates the Growth of 4T1 Primary Tumors” and the Ki (hCA II; [1]) was greater than 100 µM.
Work on `C#CCOc1ccc2ccc(=S)oc2c1` [MST-217, 7-(prop-2-ynyloxy)-2H-chromene-2-thione] yielded a melting point of 97 to 101 °C.
Compound `O=c1ccc2cc(OCc3cn(-c4ccccc4Cl)nn3)ccc2o1` [MST-225, 6-((1-(2-chlorophenyl)-1H-1,2,3-triazol-4-yl)methoxy)-2H-chromen-2-one] has a melting point of 164 to 166 °C.
In the case of `CC(C)(C)[Si](C)(C)Oc1ccc2oc(=O)ccc2c1` [MST-230, 6-(tert-Butyldimethylsilyloxy)-2H-chromen-2-one], the Ki (hCA II; [1]) is reported as greater than 200 µM.
Work on `CC(C)(C)[Si](C)(C)Oc1ccc2ccc(=O)oc2c1` [MST-231, 7-(tert-Butyldimethylsilyloxy)-2H-chromen-2-one] yielded a Ki (hCA II) greater than 200 µM.
`Oc1ccc2oc(=S)ccc2c1` [MST-233, 6-Hydroxy-2H-chromene-2-thione] showed a Ki (hCA II; [1]) greater than 200 µM.
`C=CCOc1ccc2oc(=S)ccc2c1` [MST-240, 6-(Allyloxy)-2H-chromene-2-thione] showed a Ki (hCA II; [1]) greater than 200 µM.
In the case of `N#Cc1cc2ccc(O)cc2oc1=O` [MST-247], the Ki (hCA I) is reported as 104 µM.
Compound `Cc1cc(=O)oc2cc(OCCn3c([N+](=O)[O-])cnc3C)ccc12` [MST-248, 7-O-[2-(2-methyl-5-nitro-imidazol-1-yl)ethyl]-4-methylcoumarine] has a melting point of 238 to 240 °C.
In the case of `Cc1cc(=O)oc2ccc(OCCn3c([N+](=O)[O-])cnc3C)cc12` [MST-249, 6-O-[2-(2-methyl-5-nitro-imidazol-1-yl)ethyl]-4-methylcoumarine], the melting point is reported as 190 to 191 °C.
In the case of `O=c1ccc2ccccc2o1` [unsubstituted coumarin, coumarin], the “inhibition of all investigated human CA isoforms” value (human CA isoforms) is listed as “nonselective, potent inhibitors”.

— patent US20140148400A1, “CARBONIC ANHYDRASE INHIBITORS WITH […] ACTIVITY” (METASIGNAL THERAPEUTICS INC., priority 2010, published 2014)
